Experimental findings from patent US20190031618A1, “BENZIMIDAZOLE DERIVATIVES USEFUL AS CB-1 INVERSE AGONISTS” (Janssen Pharmaceutica NV, priority 2015, published 2019) are described below.

Assay [1] concerns the target Human CB2R (Cannabinoid receptor 2) (Homo sapiens, UniProt P34972). Nature of the assay: CB-2 in vitro cAMP (HTRF) assay. The class given is cell-based. Conditions: HEK cells, cAMP HTRF, 250 nM forskolin; mean where tested more than once; read-out: CB2 HEK_cAMP EC50. An excerpt: (§1) CB1 and CB2 receptors are Gi-coupled GPCR. Activation of CB1 and CB2 receptors results in a decrease in cAMP production. An inverse agonist of the CB1 or CB2 receptor results in the opposite effect, an increase of cAMP production. The principle of this assay is based on HTRF® technology (Homogeneous Time-Resolved Fluorescence). The method is a competitive immunoassay between native cAMP produced by cells and the cAMP labeled with the fluorophore d2. The tracer binding is quantified by a Mab anti-cAMP labeled with Eu3+TBP-NHS Cryptate (supplied as part of the assay kit). The specific signal (i.e. energy transfer) is inversely proportional to the concentration of cAMP in the standard or sample.
Human CB1R (Cannabinoid receptor 1) was stably transfected in HEK-293 cells (DiscoveRx, cat: 93-0200C1). Human CB2R (Cannabinoid receptor 2) was stably transfected in HEK-293 cells (DiscoveRx, cat: 93-0201C1). Cell cultures were maintained in media: DMEM (Invitrogen Cat#12430-054) supplemented with 10% HI FBS (Invitrogen Cat#16140-071), 1% L-glutamine (Invitrogen Cat#25030-081), 0.2 mg/ml Hygromycin B (Invitrogen Cat#10687-010), 600 μg/mL G418 (Invitrogen Cat#10131-035), and 1× Penn/Strep (Invitrogen 15140-122). After cell expansion, aliquots were cryo-stored in media containing 5% DMSO (Pierce Cat#20684).
(§2) One day prior to experiments media was warmed to 37° C. and the cryo-stored cells were thawed in a 37° C. water bath. The cells were then added to media (10× volume) and the mixture was centrifuged at 1000 RPM for 5 min. The supernate was removed and the cells were re-suspended in media. A sample of the cell suspension was evaluated on a Cedex XS automated cell counter (Innovatis Systems) to determine viable cells/ml. Additional media was added to the cells to achieve a final cell density of 4E5 cells/mL. The cells were then plated into 384 well PDL white solid bottom plates (Greiner, Cat#781945) at 20 μL per well using a Multidrop (Thermo Scientific). Cells were removed from Row P (location of cAMP standards). Two columns of cells were plated into a clear bottom 384 well PDL coated plate (Greiner, Cat#781944) to view confluence the day of the assay. The cell plates were lidded and stored for 15 minutes in a hood, then transferred to an incubator (37° C., 5% CO2, 95% humidity) overnight.
DMSO was added to all wells of 384 well V bottom polystyrene plate (Greiner, Cat#781280) except to columns 1 and 13, rows O and P and wells M13-M23 and N13-N23. Test compounds (60 μL, 10 mM) were added to Column 1 and 13 (A1 through N1 and A13 through L13). Test compounds were serially diluted 1/3 by transferring and mixing 20 μl sample with 40 μL DMSO.
DMSO (40 μL) was added to wells of 384 well V bottom polystyrene plate: O2 through O11, M14 through M23, N14 through N23, and O14 through O23. AM630 (also known as [6-iodo-2-methyl-1-[2-(4-morpholinyl)ethyl]-1H-indol-3-yl](4-methoxyphenyl)-methanone, Cayman Chemical, Cat#10006974) (60 μL, 10 mM) was added to O1; and 1-(2,4-dichlorophenyl)-7-[(4-fluorophenyl)methylene]-4,5,6,7-tetrahydro-N-1-piperidinyl-1H-benzimidazole-3-carboxamide (60 μL, 10 mM) was added to N13. The control was serially diluted 1/3 by transferring and mixing 20 μl sample with 40 μL DMSO. This process resulted 11 doses per control, 10 mM to […].
Cells plated the day prior to the assay in clear bottom plates were viewed on an inverse microscope to ensure confluency in the range of 60-75%. […]
On the technique in general: TR-FRET usually uses a lanthanide donor and a delayed reading to cut background.

Assay [2] deals with Human CB1R (Cannabinoid receptor 1) (Homo sapiens, UniProt P21554). Nature of the assay: CB-1 in vitro cAMP (HTRF) assay. Format: cell-based. Conditions: HEK cells, cAMP HTRF, 250 nM forskolin; mean where tested more than once; read-out: CB1 HEK_cAMP EC50.
Sequence of Human CB1R (Cannabinoid receptor 1) (P21554 whole entry): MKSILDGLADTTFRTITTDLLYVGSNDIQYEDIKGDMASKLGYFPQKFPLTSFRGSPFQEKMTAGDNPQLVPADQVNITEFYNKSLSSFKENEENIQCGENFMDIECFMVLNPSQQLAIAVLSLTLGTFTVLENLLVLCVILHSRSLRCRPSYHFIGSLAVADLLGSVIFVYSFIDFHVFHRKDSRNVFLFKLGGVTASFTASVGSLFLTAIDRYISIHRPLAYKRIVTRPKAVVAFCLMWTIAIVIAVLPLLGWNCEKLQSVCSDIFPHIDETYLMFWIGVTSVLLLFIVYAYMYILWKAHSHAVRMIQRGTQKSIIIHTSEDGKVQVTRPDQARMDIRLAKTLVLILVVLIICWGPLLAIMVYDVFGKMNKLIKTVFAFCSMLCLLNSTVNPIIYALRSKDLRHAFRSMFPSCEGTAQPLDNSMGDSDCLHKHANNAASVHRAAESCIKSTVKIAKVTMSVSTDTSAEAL
From the text: as §1
Human CB1R (Cannabinoid receptor 1) was stably transfected in HEK-293 cells (DiscoveRx, cat: 93-0200C1). Human CB2R (Cannabinoid receptor 2) was stably transfected in HEK-293 cells (DiscoveRx, cat: 93-0201C1).
as §2, with “The cells were then plated into 384 well PDL white solid bottom plates (Greiner, Cat#781945) at 20 μL per well using a Multidrop (Thermo Scientific).” left out, “Two columns of cells were plated into a clear bottom 384 well PDL coated plate (Greiner, Cat#781944) to view confluence the day of the assay.” left out
Test compounds (60 μL, 10 mM) were added to Column 1 and 13 (A1 through N1 and A13 through L13). Test compounds were serially diluted 1/3 by transferring and mixing 20 μl sample with 40 μL DMSO.
DMSO (40 μL) was added to wells of 384 well V bottom polystyrene plate: O2 through O11, M14 through M23, N14 through N23, and O14 through O23. […] The control was serially diluted 1/3 by transferring and mixing 20 μl sample with 40 μL DMSO. This process resulted 11 doses per control, 10 mM to 0.5 μM.
Cells plated the day prior to the assay in clear bottom plates were viewed on an inverse microscope to ensure confluency in the range of 60-75%.
A FLEXDROP (Perkin Elmer) was cleaned with ethanol then water, and primed with Buffer 2. A 384 well V bottom polypropylene plate containing d2 labelled cAMP and a second 384 well V bottom polypropylene plate containing anti-cAMP was prepared (50 μl per well). Media as “dumped” from the cell plate and 30 μL Buffer 1 was added to each well using a Multidrop. The content of the cell plate was again “dumped” and 10 μL Buffer 2 was added to each well using a Flexdrop. […] The cell plate was mixed (Speed 6, Lab-Line Instruments Titer Plate Shaker) and centrifuged (1000 RPMs, 1 min). […] The cell plate was again mixed (speed 6) and centrifuged (1000 RPMs, 1 min). The cell plate was incubated for 30 minutes at room temperature (˜27° C.). The contents of row P were removed and the cAMP standard dilutions were added in duplicate to Row P (P1-12 and P13-24). After incubation, 6 μL d2 labelled cAMP and 6 μL of Anti-cAMP were added to all wells of the cell plate using a BioMek FX (Beckman Coulter). The cell plate was again mixed (speed 6) and centrifuged (1000 RPMs, 1 min) and was incubated for 60 minutes in the dark at room Temp (˜27° C.).
After this final incubation, the cell plate was read in HTRF mode (fluorescence at 665 nm and 620 nm) on an Envision plate Reader (Perkin Elmer). The Envision reader outputs a ratio of channel 1/channel 2 fluorescence×10,000 (Normalized signal (NS)). Amount of cAMP in nM was calculated for each well (based on NS) from a cAMP standard curve located on each plate (at P1-12 and P13-24). EC50 values were determined from a 4-point fit (Hill equation) of a single 11-point compound dosing. Hill slope was fixed at 1.0.

Sequence of Human CB2R (Cannabinoid receptor 2) (P34972 whole entry): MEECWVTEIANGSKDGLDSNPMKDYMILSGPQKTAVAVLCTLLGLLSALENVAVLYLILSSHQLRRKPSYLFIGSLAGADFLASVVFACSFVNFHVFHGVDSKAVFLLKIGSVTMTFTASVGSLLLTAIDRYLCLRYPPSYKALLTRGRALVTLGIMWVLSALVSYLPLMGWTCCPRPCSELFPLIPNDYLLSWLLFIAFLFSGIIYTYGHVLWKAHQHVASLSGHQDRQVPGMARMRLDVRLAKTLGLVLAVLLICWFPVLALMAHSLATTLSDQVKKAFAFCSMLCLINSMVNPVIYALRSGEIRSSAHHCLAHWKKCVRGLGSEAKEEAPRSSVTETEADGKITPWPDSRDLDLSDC

Regarding `NC(=O)c1csc(CN2CCC(n3c(C4CC4)nc4ccc(C(c5ccc(Cl)cc5)c5ccc(Cl)cc5)cc43)CC2)c1` [Example 127], the EC50 in assay [1] was over 10 µM; in assay [2], 0.005 µM.

In the case of `CCOC(=O)N1CCC(n2c(C3CN(C(=O)OC(C)(C)C)C3)nc3ccc(C(c4ccc(Cl)cc4)c4nccs4)cc32)CC1` (stereo not drawn) [Example 417], the EC50 in assay [1] was over 10 µM; in assay [2], 2.54 µM.

Consider `O=C(NCCO)c1cccc(CN2CCC(n3c(C4CC4)nc4ccc(C(c5ccc(Cl)cc5)c5ccc(Cl)cc5)cc43)CC2)c1` [Example 70], for which the 50% effective concentration (EC50) was determined as 5.82 µM in assay [1] and 0.0083 µM in assay [2].

As for `O=C(Nc1ccccc1)N1CCC(n2c(C3CC3)nc3ccc(C(c4ccc(Cl)cc4)c4ccc(Cl)cc4)cc32)CC1` [Example 50], the EC50 in assay [1] was over 10 µM; in assay [2], 0.0481 µM.

Turning to `NC(=O)c1cccc(S(=O)(=O)N2CCC(n3c(C4CC4)nc4ccc(C(c5ccc(Cl)cc5)c5ccc(Cl)cc5)cc43)CC2)c1` [Example 260], the half-maximal effective concentration (EC50) in assay [1] is over 10 µM; in assay [2], 0.0015 µM.

Turning to `O=S(=O)(N1CCC(n2c(-c3ccccn3)nc3ccc(C(c4ccc(Cl)cc4)c4nccs4)cc32)CC1)C(F)(F)F` (stereo not drawn) [Example 385], the EC50 in assay [1] is over 10 µM; in assay [2] it was 0.524 µM.

As to `COC(=O)c1cccc(N2CCC(Cn3c(C4CC4)nc4ccc(C(c5ccc(Cl)cc5)c5ccc(Cl)cc5)cc43)CC2)c1` [Example 13], the EC50 in assay [1] and in assay [2] was over 10 µM each time.

For `NC(=O)CCC(=O)N1CCC(n2c(C3CC3)nc3ccc(C(c4ccc(Cl)cc4)c4ccc(Cl)cc4)cc32)CC1` [Example 273], the concentration for a half-maximal effect (EC50) in assay [1] stood at 9.6 µM; in assay [2] it was 0.0336 µM.

For `Nc1cccc(S(=O)(=O)N2CCC(n3c(C4CC4)nc4ccc(C(c5ccc(Cl)cc5)c5ccc(Cl)cc5)cc43)CC2)c1` [Example 52], the EC50 in assay [1] was over 10 µM; in assay [2], 0.0092 µM.

As for `O=S(=O)(N1CCC(n2c(C3CC3)nc3ccc(C(O)(c4ccc(Cl)cc4)c4ccc(Cl)cc4)cc32)CC1)C(F)(F)F` [Example 303], the concentration for a half-maximal effect (EC50) in assay [1] was over 10 µM; in assay [2], 0.0174 µM.

On to `CCOC(=O)N1CCC(n2c(C(C)(C)C)nc3ccc(C(c4ccc(Cl)cc4)c4nccs4)cc32)CC1` (stereo not drawn) [Example 408], for which the EC50 in assay [1] is over 10 µM; in assay [2] it was 3.15 µM.

For `CCc1nc2ccc(C(c3ccc(Cl)cc3)c3ccc(Cl)cc3)cc2n1CC(C)c1ccccc1` (single isomer, unassigned) [Example 312], the EC50 was found to be 1.5 µM in assay [1] and 0.0492 µM in assay [2].

In the case of `Cc1nc2ccc(C(c3ccc(Cl)cc3)c3nccs3)cc2n1C1Cc2ccccc2C1` (stereo not drawn) [Example 361], the figures for the EC50 in assay [1] and in assay [2] were over 10 µM and 2.02 µM, respectively.

Regarding `CC(C)c1nc2ccc(C(c3ccc(Cl)cc3)c3nccs3)cc2n1-c1cccc(Cl)c1` (stereo not drawn) [Example 402], the concentration giving a half-maximal response (EC50) in assay [1] was over 10 µM; in assay [2], 0.192 µM.

In the case of `Cc1cc(C(=O)O)sc1S(=O)(=O)N1CCC(n2c(C3CC3)nc3ccc(C(c4ccc(Cl)cc4)c4ccc(Cl)cc4)cc32)CC1` [Example 218], the EC50 in assay [1] came to 1.44 µM; in assay [2], 0.0072 µM.

For the compound `NC(=O)c1ccc(N2CCC(n3c(C4CC4)nc4ccc(C(c5ccc(Cl)cc5)c5ccc(Cl)cc5)cc43)CC2)cc1` [Example 161], the concentration for a half-maximal effect (EC50) came out at 2.11 µM in assay [1] and 0.008 µM in assay [2].

On to `NC(=O)c1ccccc1S(=O)(=O)N1CCC(n2c(C3CC3)nc3ccc(C(c4ccc(Cl)cc4)c4ccc(Cl)cc4)cc32)CC1` [Example 243], for which the concentration giving a half-maximal response (EC50) in assay [1] turned out to be 0.347 µM; in assay [2] it was 0.0359 µM.

Regarding `O=C(OCc1ccccc1)N1CCC(n2c(C3CC3)nc3ccc(C(c4ccc(Cl)cc4)c4ccc(Cl)cc4)cc32)CC1` [Example 69], the half-maximal effective concentration (EC50) in assay [1] was determined as 1.21 µM; in assay [2] it was 0.0086 µM.

Turning to `O=C(O)c1ccc(C(O)(c2ccc(Cl)cc2)c2ccc3nc(C4CC4)n(C4CCN(S(=O)(=O)C(F)(F)F)CC4)c3c2)cc1` (stereo not drawn) [Example 150], the concentration for a half-maximal effect (EC50) is over 10 µM in assay [1] and 0.972 µM in assay [2].

As to `NC(=O)c1ccc(S(=O)(=O)N2CCC(n3c(C4CC4)nc4ccc(C(c5ccc(Cl)cc5)c5ccc(Cl)cc5)cc43)CC2)o1` [Example 224], the EC50 in assay [1] is over 10 µM; in assay [2] it was 0.006 µM.

For `O=C(O)c1cc(CN2CCC(n3c(C4CC4)nc4ccc(C(c5ccc(Cl)cc5)c5ccc(Cl)cc5)cc43)CC2)ccc1O` [Example 81], the EC50 was found to be 3.2 µM in assay [1] and 0.0141 µM in assay [2].

With `O=C(O)CS(=O)(=O)N1CCC(n2c(C3CC3)nc3ccc(C(c4ccc(Cl)cc4)c4ccc(Cl)cc4)cc32)CC1` [Example 248], the results for the EC50 in assay [1] and in assay [2] were over 10 µM and 4.24 µM, respectively.

In the case of `CC(c1cccc(O)c1)N1CCC(n2c(C3CC3)nc3ccc(C(c4ccc(Cl)cc4)c4ccc(Cl)cc4)cc32)CC1` (stereo not drawn) [Example 56], the EC50 in assay [1] was over 10 µM; in assay [2], 0.0193 µM.

With `Clc1ccc(C(c2ccc(Cl)cc2)c2ccc3nc(C4CC4)n(C4CCOCC4)c3c2)cc1` [Example 119], the EC50 in assay [1] stood at 6.74 µM; in assay [2] it was 0.0949 µM.

The term EC50 denotes the midpoint of the concentration-response curve.
